Where two headings read alike, the source gives them in different places.
Columns and labels:
[1] = tested on: hypothermic effect caused by reserpine; experiment: Reserpine antagonism (elimination of the hypothermic effect caused by reserpine); format: in vivo; conditions: Mus musculus, mice, oral, 17 h after 2 mg/kg i.p. reserpine
Method: A further test for determining anti-depressive activity is based on reserpine-antagonism, that is, the elimination of the hypothermic effect caused by reserpine. The test is carried out in mice, 5 animals being used per dosage test. Seventeen hours after i.p. administration of 2 mg/kg of reserpine, the body temperature is measured peripherally while at a room temperature of 19° C. Afterwards, the test substance is administered orally, and the body temperature is measured after 1, 3, 5 and 7 hours. For each measured period a mean effective dose (ED50) is determined. This is the dosage at which the body temperature of the animals treated with reserpine approaches the normal temperature of untreated controls by 50%.

[2] = tested on: uptake of serotonin by the neurons (synaptosomes); experiment: Inhibition of serotonin uptake by synaptosomes of homogenized cerebrum; format: biochemical; conditions: rat cerebrum synaptosomes, 10 minutes at 37° C.; read-out: Serotonin inhibition IC 50
Method: (§1) It is now believed that various forms of depression cause a deficiency of certain physiologically important amines, particularly noradrenaline and serotonin, in certain parts of the brain, and that the amount of such amines may be increased by inhibiting their uptake by neurons.
(§2) The test is performed on the homogenized, isolated cerebrum of the rat. A suspension of synaptosomes thus obtained is incubated with […] noradrenaline and/or serotonin and various concentrations of a solution of the test substance in water for 10 minutes at 37° C. When the incubation is finished, the medium is separated by filtering, and the radioactivity of the suspension of synaptosomes is measured.
(§3) A control test in the absence of the test substance is simultaneously carried out in order to determine the quantity of radioactive amines taken up. The quantity of the test substance in mols which is required to inhibit 50% of the uptake is designated the IC 50.

[3] = tested on: uptake of noradrenaline by the neurons (synaptosomes); experiment: Inhibition of noradrenaline uptake by synaptosomes of homogenized cerebrum; format: biochemical; conditions: rat cerebrum synaptosomes, 10 minutes at 37° C.; read-out: Noradrenaline inhibition IC 50
Method: as §1, §2, §3

[4] = 1 hour, read-out: Reserpine antagonism after 1 hour (ED50)
[5] = 3 hours, read-out: Reserpine antagonism after 3 hours (ED50)
[6] = 5 hours, read-out: Reserpine antagonism after 5 hours (ED50)
[7] = 7 hours, read-out: Reserpine antagonism after 7 hours (ED50)

In the case of `CN1Cc2c(cc(CN3CCOCC3)n2C)C(c2ccccc2)C1` (stereo not drawn) [1,6-Dimethyl-2-morpholinomethyl-4-phenyl-4,5,6,7-tetrahydropyrrolo[2,3-c]pyridine], the ED50 [1, 4] is reported as > 40 mg/kg, the ED50 [1, 5] is reported as 16 mg/kg and the ED50 [1, 6] is reported as 10 mg/kg. For the same compound, the ED50 [1, 7] was < 40 mg/kg, the IC50 [2] was 1600 nM and the IC50 [3] was 6600 nM.

Compound `CN1Cc2c(ccn2C)C(c2ccc(Br)cc2)C1` (stereo not drawn) [1,6-Dimethyl-4-(p-bromophenyl)-4,5,6,7-tetrahydro-pyrrolo[2,3-c]pyridine] has an ED50 [1, 4] of 20 mg/kg, an ED50 [1, 5] of 6 mg/kg and an ED50 [1, 6] of 40 mg/kg. For the same compound, the ED50 [1, 7] was 40 mg/kg, the IC50 [2] was 90 nM and the IC50 [3] was 1250 nM.

In the case of `CN(CCO)Cc1cc2c(n1C)CN(C)CC2c1ccc(Br)cc1` (stereo not drawn) [1,6-dimethyl-2-N-methyl-N-β-hydroxyethyl-aminomethyl-4-(p-bromophenyl)-4,5,6,7-tetrahydro-pyrrolo[2,3-c]-pyridine dimaleate], the ED50 [1, 4] is reported as 10 mg/kg, the ED50 [1, 5] is reported as < 10 mg/kg and the ED50 [1, 6] is reported as 13 mg/kg. It also gave an ED50 [1, 7] of 10 mg/kg, an IC50 [2] of 380 nM and an IC50 [3] of 1300 nM.

For `CN1Cc2c(cc(Br)n2C)C(c2ccc(Br)cc2)C1` (stereo not drawn) [1,6-dimethyl-2-bromo-4-(p-bromophenyl)-4,5,6,7-tetrahydro-pyrrolo[2,3-c]-pyridine], the ED50 [1, 4] was > 40 mg/kg, the ED50 [1, 5] was 14 mg/kg and the ED50 [1, 6] was < 10 mg/kg. It also gave an ED50 [1, 7] of 10 mg/kg, an IC50 [2] of 440 nM and an IC50 [3] of 1800 nM.

In the case of `CN1Cc2c(cc(CN3CCCCCC3)n2C)C(c2ccc(Br)cc2)C1` (stereo not drawn) [1,6-dimethyl-2-hexahydro-azepine-1-yl-methyl-4-(p-bromophenyl)-4,5,6,7-tetrahydro-pyrrolo[2,3-c]-pyridine dimaleate], the ED50 [1, 4] is reported as < 10 mg/kg, the ED50 [1, 5] is reported as < 10 mg/kg and the ED50 [1, 6] is reported as 20 mg/kg. The ED50 [1, 7] was > 40 mg/kg.

For `CN1Cc2c(cc(CN3CCCCC3)n2C)C(c2ccc(Br)cc2)C1` (stereo not drawn) [1,6-dimethyl-2-piperidino-methyl-4-(p-bromophenyl)-4,5,6,7-tetrahydro-pyrrolo-[2,3-c]pyridine dimaleate], the ED50 [1, 4] was > 40 mg/kg, the ED50 [1, 5] was 40 mg/kg and the ED50 [1, 6] was 40 mg/kg. The ED50 [1, 7] was > 40 mg/kg.

With `CN1Cc2c(cc(CN3CCCC3)n2C)C(c2ccc(Br)cc2)C1` (stereo not drawn) [1,6-dimethyl-2-pyrrolidino-methyl-4-(p-bromophenyl)-4,5,6,7-tetrahydro-pyrrolo-[2,3-c]pyridine dimaleate] the ED50 [1, 4] was > 40 mg/kg, the ED50 [1, 5] was < 10 mg/kg and the ED50 [1, 6] was 10 mg/kg. The ED50 [1, 7] was < 10 mg/kg.

With `CN1Cc2c(ccn2C)C(c2ccc(Cl)cc2)C1.Cl` (stereo not drawn) [1,6-dimethyl-4-(p-chlorophenyl)-4,5,6,7-tetrahydro-pyrrolo-[2,3-c]pyridine hydrochloride] the ED50 [1, 4] was < 10 mg/kg, the ED50 [1, 5] was < 10 mg/kg and the ED50 [1, 6] was < 10 mg/kg. The ED50 [1, 7] was < 10 mg/kg, the IC50 [2] was 40 nM and the IC50 [3] was 1500 nM.

For `CN1Cc2c(ccn2C)C(c2ccc(F)cc2)C1.Cl` (stereo not drawn) [1,6-dimethyl-4-(p-fluorophenyl)-4,5,6,7-tetrahydro-pyrrolo-[2,3-c]pyridine hydrochloride], the ED50 [1, 4] was < 10 mg/kg, the ED50 [1, 5] was < 10 mg/kg and the ED50 [1, 6] was < 10 mg/kg. The ED50 [1, 7] was < 10 mg/kg, the IC50 [2] was 180 nM and the IC50 [3] was 6700 nM.

With `Cc1ccc(C2CN(C)Cc3c2ccn3C)cc1.Cl` (stereo not drawn) [1,6-dimethyl-4-(p-tolyl)-4,5,6,7-tetrahydro-pyrrolo-[2,3-c]pyridine hydrochloride] the ED50 [1, 4] was > 40 mg/kg, the ED50 [1, 5] was < 10 mg/kg and the ED50 [1, 6] was 16 mg/kg. The ED50 [1, 7] was < 10 mg/kg, the IC50 [2] was 40 nM and the IC50 [3] was 4900 nM.

Compound `Cn1ccc2c1CNCC2c1ccc(Br)cc1.O=C(O)/C=C\C(=O)O` (stereo not drawn) [1-methyl-4-(p-bromophenyl)-4,5,6,7-tetrahydro-pyrrolo-[2,3-c]pyridine maleate] has an ED50 [1, 4] of 36 mg/kg, an ED50 [1, 5] of 10 mg/kg and an ED50 [1, 6] of 30 mg/kg. For the same compound, the ED50 [1, 7] was 40 mg/kg, the IC50 [2] was 530 nM and the IC50 [3] was 6900 nM.

With `CCN1Cc2c(ccn2C)C(c2ccc(C)cc2)C1.Cl` (stereo not drawn) [1-methyl-4-(p-tolyl)-6-ethyl-4,5,6,7-tetrahydro-pyrrolo-[2,3-c]pyridine hydrochloride] the ED50 [1, 4] was > 40 mg/kg, the ED50 [1, 5] was < 10 mg/kg and the ED50 [1, 6] was 10 mg/kg. The ED50 [1, 7] was > 40 mg/kg, the IC50 [2] was 20 nM and the IC50 [3] was 600 nM.

— patent US4315938A, “4-Phenyl-4,5,6,7-tetrahydro-pyrrolo [2,3-c] pyridines and salts thereof” (Boehringer Ingelheim Gmbh, priority 1979, dated 1982)
